# Results taken from PMC11579209, “Population pharmacokinetics and exposure–response relationships of maribavir in transplant recipients with cytomegalovirus infection” (Journal of Pharmacokinetics and Pharmacodynamics, 2024).
# Read-outs that look alike come from different tables or passages of the source.
# Experiments:
# [1] = test system: CMV; assay: Exposure–response analysis of efficacy, primary endpoint: confirmed CMV viremia clearance at week 8 (SOLSTICE); type: in vivo, human; settings: for Probability of being responder, primary endpoint: AUCss 200 µg∙h/mL
# Procedure: The exposure–response analyses for maribavir were based on data collected from transplant recipients with CMV infections that were refractory to treatment with ganciclovir, valganciclovir, foscarnet, or cidofovir in the phase 3 SOLSTICE study (ClinicalTrials.gov: NCT02931539). SOLSTICE was a multicenter, open-label, active-controlled study in which patients were randomized 2:1 to receive maribavir 400 mg BID or IAT for 8 weeks, with 12 weeks of follow-up. The primary endpoint was confirmed CMV clearance at the end of week 8, and the key secondary endpoint was achievement of CMV clearance and symptom control at the end of week 8, maintained through week 16. TE CMV mutation conferring resistance to maribavir was assessed as an exploratory endpoint. Full details of the SOLSTICE study have been published previously.
# Posterior Bayes parameters of the final PopPK model were used to derive rich concentration–time profiles for maribavir. Actual dosing history and factors affecting the PK of maribavir (i.e., body weight and time-varying presence of strong CYP3A4 inhibitors or strong CYP3A4 inducers) were considered in the predictions.
# Data set preparation, exploration, visualization of the data and exposure-response analyses were performed using R® (version 4.0.5 for efficacy and resistance analyses; version 4.0.2 for safety analysis) with comprehensive R® archive network (CRAN) and Certara Strategic Consulting (CSC) package. Firth correction on logistic regression was done based on library “logistf”. Logistic regressions with log-linear exposure effect or Emax exposure effect were performed using NONMEM Version VII (version 7.4).
# Maribavir exposure parameters (AUCss, Cmax.ss, and Ctrough.ss) were combined with the primary and key secondary efficacy endpoints, and with TE CMV mutations conferring resistance to maribavir from the SOLSTICE study. The following covariates were included in the dataset to identify potential influencing factors: transplant type (HCT, SOT); CMV DNA level (high, intermediate, low) at baseline; symptom status (symptomatic or asymptomatic) at baseline; CMV resistant at baseline (yes, no); donor (D) and recipient (R) CMV serostatus (D+/R−, D+/R+, or D−/R+, D−/R−); antilymphocyte use (yes, no); immune function status as measured by total white blood cells from hematology panel at baseline; CMV-specific CD4 + CD69 + and CD8 + CD69 + T cells from immune function assay as continuous variables at baseline; enrolling region (North America, Europe, Asia Pacific); prior use of CMV prophylaxis (yes, no); age (as a continuous parameter) and age group (12 to < 18 years; 18 to < 45 years; 45 to < 65 years; ≥65 years); sex (male, female); race and ethnicity; TE CMV maribavir-resistant mutations (yes, no); and temporal identification of maribavir resistance (no, on maribavir treatment, post-maribavir treatment).
# The exposure–response analyses were performed using a logistic regression model whereby a response can be defined as 0 (non-responder) or 1 (responder). Logistic regression analyses were performed to explore potential associations with maribavir exposure and the probability of response. The logistic regression model had the following form, assuming that maribavir exposure is included in the model:1 [drawing 1]
# Pi is the probability of the event in the ith patient and α is the baseline Ln (odds) of the event. The model assumes a linear exposure effect on logit scale, with the parameter α representing the intercept, while β1 represents the slope linking the exposure parameter (X1) of maribavir (AUCss, Cmax.ss, and Ctrough.ss) to the response. The statistical significance of α and β1 was tested in the logistic regression models with a p value of < 0.05, and 95% CIs were provided for each parameter. The odds ratio (OR) for β1 was derived for a specific unit increment of the PK parameter. […]
# [2] = cited from earlier work
# [3] = set-up: method as in PMID 31532960, PMID 30329038; settings: doses up to 1200 mg BID, cited from earlier work
# [4] = primary endpoint, reference < 0.5%
smiles,measurement,setting,value
CC(C)Nc1nc2cc(Cl)c(Cl)cc2n1[C@H]1O[C@@H](CO)[C@H](O)[C@@H]1O [maribavir],"Observed proportion of responders, primary endpoint",[1]; 1st quartile of AUCss (range 72.2–170),59%
same,"Observed proportion of responders, primary endpoint",[1]; 2nd quartile of AUCss (range 170–238),72%
same,"Observed proportion of responders, primary endpoint",[1]; 3rd quartile of AUCss (range 238–354),59%
same,"Observed proportion of responders, primary endpoint",[1]; 4th quartile of AUCss (range 354–802),38%
same,"Probability of being responder, primary endpoint","[1]; CD8 + CD69 + cell count ≥ 2%, no TE mutation",90.0%
same,"Probability of being responder, primary endpoint","[1]; developed TE CMV maribavir-resistant mutation, CD8 + CD69 + < 0.5%",1.3%
same,Relationship between maribavir exposure and probability of CMV viremia clearance at week 8,"[1]; excluding 60 patients with TE CMV mutation conferring resistance, n = 171, p = 0.0709",no statistical exposure–efficacy relationship
same,Patients meeting primary endpoint of confirmed CMV viremia clearance at week 8,"[1]; exposure–response population n = 231, 400 mg BID, 131 patients",57%
same,Relationship between maribavir exposure (AUCss) and probability of CMV viremia clearance at week 8,"[1]; n = 231, p = 0.008",negative relationship
same,"Probability of being responder, primary endpoint","[1]; no TE CMV maribavir-resistant mutation, CD8 + CD69 + < 0.5%",74.2%
same,OR (95% CI): treatment-emergent maribavir resistance on maribavir treatment,[1]; primary endpoint,"0.00457 (3.59 × 10^–5, 0.0333)"
same,Non-responders among patients with TE maribavir-resistant CMV mutations,"[1]; primary endpoint, week 8",81%
same,Logistic regression Estimate (SE): baseline CD8+CD69+ cell count ≥2%,[1]; [4],1.19 (0.630)
same,OR (95% CI): baseline CD8+CD69+ cell count not reported,[1]; [4],"0.730 (0.328, 1.66)"
same,OR (95% CI): baseline CD8+CD69+ cell count ≥0.5% to <2%,[1]; [4],"0.739 (0.289, 1.98)"
same,OR (95% CI): baseline CD8+CD69+ cell count ≥2%,[1]; [4],"3.29 (1.07, 13.4)"
same,Time to steady-state exposure,"[2]; 400 mg BID, transplant recipients with CMV infection",≤ 2 days
same,PK in patients with mild or moderate hepatic impairment,[2],unaffected
same,Renal excretion as share of total clearance of unchanged drug,[2],< 2%
same,Systemic exposure in healthy Japanese individuals compared with White individuals,[2],higher
same,Mean half-life,[2]; healthy volunteers,3.0 to 4.8 h
same,Median time to maximum plasma concentration (Tmax),[2]; oral administration,1 to 3 h
same,Dose proportionality of PK,[2]; single doses of up to 1600 mg and multiple doses up to 2400 mg per day,dose-proportional
same,Mean half-life,[2]; transplant recipients,4.3 h
same,Dose-related myelosuppression,[3],no evidence of dose-related myelosuppression
same,Incidence of dysgeusia across doses,[3]; transplant recipients with refractory CMV infection,similar
